Source: patent US9421269B2, “Saponin nano micelle, preparing method, application and pharmaceutical composition thereof” (FUJIAN SOUTH PHARMACEUTICAL CO., LTD, priority 2013, dated 2016)

Test: appearance of drug-loading micelle solution versus contrast sample
Assay type: physicochemical
Conditions: in 10 ml absolute ethanol

appearance of solution: murky
SMILES: Oc1ccc(C=Cc2cc(O)cc(O)c2)cc1 [resveratrol]
